The record followed here is US20250011368A1, “DLL3 TARGETING PEPTIDES AND CONSTRUCTS THEREOF” (MARIANA ONCOLOGY INC., priority 2023, published 2025).

Numbered stars: 1 amine (or outer) side, 2 acyl side, 3 side chain; on linkers, the order of the positions; unused ones are H or OH. Bridge positions count the residues as written; N and C are the ends. Square brackets hold non-standard residues; d marks the D form. Side chains are listed from the residue outwards. Peptide text beside a SMILES is read from it. * marks the point of attachment. X4 = O=C(O)CN1CCN(CC(=O)O)CCN(CC(=O)N[C@H]2CC[C@H](CC(=O)*)CC2)CCN(CC(=O)O)CC1; X9 = O=C(O)CN1CCN(CC(=O)O)CCN(CC(=O)NCCCOCCOCCOCCCN*)CCN(CC(=O)O)CC1; DOTA = O=C(O)CN1CCN(CC(=O)O)CCN(CC(=O)*)CCN(CC(=O)O)CC1; Trp(7-Me) = Cc1cccc2c(C[C@H](N)C(=O)O)c[nH]c12; Trp(7-aza) = N[C@@H](Cc1c[nH]c2ncccc12)C(=O)O; γGlu = O=C(O)[C@H](CCC(=O)[*:2])N[*:1]; 2Nal = N[C@@H](Cc1ccc2ccccc2c1)C(=O)O; Nva(3-Et) = CCC(CC)[C@H](N)C(=O)O; Chg = N[C@H](C(=O)O)C1CCCCC1; Suc = O=C(CCC(=O)[*:2])[*:1]

For this assay, the target named is T1, human DLL3 (Homo sapiens, UniProt Q9NYJ7).
T1 sequence (Q9NYJ7 27-618): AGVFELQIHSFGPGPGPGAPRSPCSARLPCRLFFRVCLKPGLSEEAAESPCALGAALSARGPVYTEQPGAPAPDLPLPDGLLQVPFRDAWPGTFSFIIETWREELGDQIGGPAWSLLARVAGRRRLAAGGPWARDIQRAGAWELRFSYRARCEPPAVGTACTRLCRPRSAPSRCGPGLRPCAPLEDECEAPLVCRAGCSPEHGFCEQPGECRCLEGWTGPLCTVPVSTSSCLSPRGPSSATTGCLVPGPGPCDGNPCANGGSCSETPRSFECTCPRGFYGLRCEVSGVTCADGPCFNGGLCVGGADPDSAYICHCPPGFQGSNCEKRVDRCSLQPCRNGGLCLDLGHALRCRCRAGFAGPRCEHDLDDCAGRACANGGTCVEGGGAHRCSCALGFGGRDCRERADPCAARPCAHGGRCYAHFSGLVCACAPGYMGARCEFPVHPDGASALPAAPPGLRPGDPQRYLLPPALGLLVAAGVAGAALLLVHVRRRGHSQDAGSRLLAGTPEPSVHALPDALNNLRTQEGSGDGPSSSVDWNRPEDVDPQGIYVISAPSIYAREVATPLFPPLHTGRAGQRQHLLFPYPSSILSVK
Kind of assay: Affinity determination by Surface Plasmon Resonance (SPR). Type of assay: binding. The following applies: 25° C., biotinylated human DLL3 immobilized on streptavidin sensor chip, 1:1 binding model; read-out: SPR KD. In a few lines:
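Kinetic and affinity constants were derived by fitting sensorgrams to a 1:1 binding model. Graded compound concentrations flowed at 100 μL/minute in 20 mM phosphate running buffer with 2% DMSO over streptavidin-immobilized biotinylated human DLL3, reference-subtracted.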

As usually defined, the Kd is a measure of binding affinity in units of concentration. Consider `CCC(CC)[C@H](NC(=O)[C@@H](NC(=O)[C@H](Cc1c[nH]c2ccccc12)NC(C)=O)[C@@H](C)O)C(=O)N[C@H]1CSSC[C@@H](C(=O)N[C@@H](Cc2c[nH]c3ncccc23)C(=O)N2CCC[C@H]2C(=O)N[C@H](CCCCNC(=O)C[C@H]2CC[C@H](NC(=O)CN3CCN(CC(=O)O)CCN(CC(=O)O)CCN(CC(=O)O)CC3)CC2)C(N)=O)NC(=O)[C@H](CC(=O)O)NC(=O)[C@H](Cc2cnc[nH]2)NC(=O)[C@H](Cc2ccc3ccccc3c2)NC(=O)[C@H](CC(N)=O)NC(=O)[C@H](CC(N)=O)NC1=O` [compound 202, Ac-W-T-(Env)-C(3)-N-N-(2Nal)-H-D-C(3)-(7-Aza-W)-P-[D-Lys(Chx-DOTA)]-NH2] (Ac-WT[Nva(3-Et)]CNN[2Nal]HDC[Trp(7-aza)]P[dK](X4)-NH2; disulfide 4-10), for which the Kd lay in the range of 1 to 10 nM.
In the case of `CC(=O)N[C@@H](Cc1c[nH]c2ccccc12)C(=O)N[C@H](C(=O)N[C@H](C(=O)N[C@H]1CSSC[C@@H](C(=O)N[C@@H](Cc2c[nH]c3ncccc23)C(=O)N2CCC[C@H]2C(=O)N[C@H](CCCCNC(=O)C[C@H]2CC[C@H](NC(=O)CN3CCN(CC(=O)O)CCN(CC(=O)O)CCN(CC(=O)O)CC3)CC2)C(N)=O)NC(=O)[C@H](CC(=O)O)NC(=O)[C@H](Cc2cnc[nH]2)NC(=O)[C@H](Cc2ccc3ccccc3c2)NC(=O)[C@H](CC(N)=O)NC(=O)[C@H](CC(N)=O)NC1=O)C1CCCCC1)[C@@H](C)O` [compound 203, Ac-W-T-(Chg)-C(3)-N-N-(2Nal)-H-D-C(3)-(7-Aza-W)-P-[D-Lys(Chx-DOTA)]-NH2] (Ac-WT[Chg]CNN[2Nal]HDC[Trp(7-aza)]P[dK](X4)-NH2; disulfide 4-10) it was less than 1 nM; in that of `CCC(CC)[C@H](NC(=O)[C@@H](NC(=O)[C@H](Cc1c[nH]c2ccccc12)NC(C)=O)[C@@H](C)O)C(=O)N[C@H]1CSSC[C@@H](C(=O)N[C@@H](Cc2c[nH]c3ncccc23)C(=O)N2CCC[C@H]2C(=O)N[C@H](CCCCNC(=O)CCC(=O)NCCCOCCOCCOCCCNC(=O)CN2CCN(CC(=O)O)CCN(CC(=O)O)CCN(CC(=O)O)CC2)C(N)=O)NC(=O)[C@H](CC(=O)O)NC(=O)[C@H](Cc2c[nH]cn2)NC(=O)[C@H](Cc2ccc3ccccc3c2)NC(=O)[C@H](CC(N)=O)NC(=O)[C@H](CC(N)=O)NC1=O` [compound 204, Ac-W-T-(Env)-C(3)-N-N-(2Nal)-H-D-C(3)-(7-Aza-W)-P-[D-Lys(G-G-TTDS-DOTA)]-NH2] (Ac-WT[Nva(3-Et)]CNN[2Nal]HDC[Trp(7-aza)]P[dK]([Suc-X9])-NH2; disulfide 4-10), less than 1 nM.
In the case of `CC[C@H](C)[C@H](NC(=O)[C@@H](NC(=O)[C@H](Cc1c[nH]c2c(C)cccc12)NC(C)=O)[C@@H](C)O)C(=O)N[C@H]1CSSC[C@@H](C(=O)N[C@@H](Cc2c[nH]c3ccccc23)C(=O)N2CCC[C@H]2C(=O)N[C@H](CCCCNC(=O)CN2CCN(CC(=O)O)CCN(CC(=O)O)CCN(CC(=O)O)CC2)C(N)=O)NC(=O)[C@H](CC(=O)O)NC(=O)[C@H](Cc2cnc[nH]2)NC(=O)[C@H](Cc2ccc3ccccc3c2)NC(=O)[C@H](CC(N)=O)NC(=O)[C@H](CC(N)=O)NC1=O` [compound 206, Ac-(7-Me-W)-T-I-C(3)-N-N-(2Nal)-H-D-C(3)-W-P-[D-Lys(DOTA)]-NH2] (Ac-[Trp(7-Me)]TICNN[2Nal]HDCWP[dK](DOTA)-NH2; disulfide 4-10), the Kd was less than 1 nM.
On to `CC[C@H](C)[C@H](NC(=O)[C@@H](NC(=O)[C@H](Cc1c[nH]c2c(C)cccc12)NC(C)=O)[C@@H](C)O)C(=O)N[C@H]1CSSC[C@@H](C(=O)N[C@@H](Cc2c[nH]c3ccccc23)C(=O)N2CCC[C@H]2C(=O)N[C@H](CCCCNC(=O)CC[C@H](NC(=O)CC[C@H](NC(=O)CC[C@H](NC(=O)CN2CCN(CC(=O)O)CCN(CC(=O)O)CCN(CC(=O)O)CC2)C(=O)O)C(=O)O)C(=O)O)C(N)=O)NC(=O)[C@H](CC(=O)O)NC(=O)[C@H](Cc2cnc[nH]2)NC(=O)[C@H](Cc2ccc3ccccc3c2)NC(=O)[C@H](CC(N)=O)NC(=O)[C@H](CC(N)=O)NC1=O` [compound 207, Ac-(7-Me-W)-T-I-C(3)-N-N-(2Nal)-H-D-C(3)-W-P-[D-Lys(gE-gE-gE-DOTA)]-NH2] (Ac-[Trp(7-Me)]TICNN[2Nal]HDCWP[dK]([γGlu-γGlu-γGlu-DOTA])-NH2; disulfide 4-10), for which the Kd is less than 1 nM.
